Test results from patent US20210302318A1, “MEANS AND METHOD FOR THE REAL-TIME ANALYSIS OF HARVESTED CROPS” (THE STATE OF ISRAEL, MINISTRY OF AGRICULTURE & RURAL …, priority 2018, published 2021).

System: insects in wheat
Assay: Monitoring efficiency of Deltamethrin pest control treatment in wheat with the TV1061 sensor
Assay type: in vivo
Details: FIG. 13
Procedure: Reference is now made to FIG. 13 showing monitoring efficiency of Deltamethrin pest control treatment in wheat. To determinate system capability to test the efficiency of the pest control treatments, infected and clean wheat were treated with Deltamethrin. Then, sensor (with TV1061 strain) was placed into the treated chambers. […] Deltamethrin is not effective against eggs inside the wheat. Therefore insects inside wheat (in eggs) will be destroyed at the time when they will hatch and walk out. […] Then decreasing in the sensor responses to the background levels may be explained by killing these insects by Deltamethrin residues on the wheat.

SMILES: CC1(C)[C@H](C(=O)O[C@H](C#N)c2cccc(Oc3ccccc3)c2)[C@@H]1C=C(Br)Br [Deltamethrin]
- effectiveness against eggs inside the wheat (eggs inside the wheat, sensor response increased on the third day after sanitization): not effective
- pest control efficiency (insects in infected wheat) (infected and clean wheat treated, inferred from similar TV1061 sensor responses in infected and uninfected sample): all insects were destroyed
